Laboratory results as given in PubChem BioAssay AID328 (DTP/NCI, 2004).
Several values for one entry are separate records, joined by “and”; a condition that tells them apart may be missing. Equal values may be shown once. Inconclusive results and toxic doses are left out.

Tested on: BDF1 mice, P388 leukemia ip, median survival T/C
Experiment: NCI In Vivo Anticancer Drug Screen. Data for tumor model P388 Leukemia (intraperitoneal) in B6D2F1 (BDF1) mice
Conditions: endpoint: median survival time, higher = longer survival
Outline: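 Each value expresses how treatment altered survival: treated-mouse outcome over vehicle-mouse outcome, both groups bearing the transplanted tumour.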

[1] = dose: 12.5 mg/kg/injection, schedule: Q01DX009 (ip), vehicle: Klucel (hydroxypropylcellulose) (HPC)
[2] = dose: 25.0 mg/kg/injection, schedule: Q01DX009 (ip), vehicle: Klucel (hydroxypropylcellulose) (HPC)
[3] = dose: 50.0 mg/kg/injection, schedule: Q01DX009 (ip), vehicle: saline with Tween-80
[4] = dose: 100.0 mg/kg/injection, schedule: Q01DX009 (ip), vehicle: saline with Tween-80
[5] = dose: 200.0 mg/kg/injection, schedule: Q01DX009 (ip), vehicle: saline with Tween-80

Question: How did the T/C (dose: 15.0 mg/kg/injection, schedule: Q01DX009 (ip), vehicle: saline with Tween-80) turn out when COc1ccc(NC2=CC(=O)C(=O)C=C2Nc2ccc(OC)cc2)cc1 was run?
Answer: The T/C was 93 % of control.

Question: And the T/C (dose: 30.0 mg/kg/injection, schedule: Q01DX009 (ip), vehicle: saline with Tween-80)?
Answer: Its T/C is 93 % of control.

Question: What about the T/C (dose: 60.0 mg/kg/injection, schedule: Q01DX009 (ip), vehicle: saline with Tween-80) of the same compound?
Answer: The T/C was 91 % of control.

Question: Which T/C [1] does the source give for CC(=O)C(C#N)c1ccccc1 (stereo not drawn) here?
Answer: Its T/C is 118 % of control.

Question: What about the T/C [2] of the same compound?
Answer: Its T/C is 109 % of control.

Question: What about the T/C (dose: 50.0 mg/kg/injection, schedule: Q01DX009 (ip), vehicle: Klucel (hydroxypropylcellulose) (HPC)) of the same compound?
Answer: Its T/C is 90 % of control.

Question: Which results are given for O=c1[nH]nc(NCCCO)c2ccccc12?
Answer: T/C [3]: 112 % of control; T/C [4]: 87 % of control; T/C [5]: 96 % of control

Question: How did the T/C [4] turn out when O=C(CC(NC(=O)OCc1ccccc1)C(=O)OCc1ccccc1)OCc1ccccc1 (stereo not drawn) was run?
Answer: The T/C was 97 % of control.

Question: And the T/C [5]?
Answer: The T/C was 108 % of control.

Question: What about the T/C (dose: 400.0 mg/kg/injection, schedule: Q01DX009 (ip), vehicle: saline with Tween-80) of the same compound?
Answer: Its T/C is 97 % of control.

Question: How did the T/C [3] turn out when CN(C)c1ccc(Sc2ccc3nc(N)nc(N)c3c2)cc1 was run?
Answer: The T/C was 112 % of control.

Question: And the T/C [4]?
Answer: Its T/C is 103 % of control.

Question: And the T/C [5]?
Answer: Its T/C is 174 % of control.

Question: Which T/C (dose: 50.0 mg/kg/injection, schedule: Q01DX010 (ip), vehicle: saline with Tween-80) does the source give for O=C(OCC1OC(n2cnc3c(=O)[nH]c(=O)[nH]c32)C(OC(=O)c2ccccc2)C1OC(=O)c1ccccc1)c1ccccc1 (stereo not drawn) here?
Answer: The T/C was 100 % of control.

Question: And the T/C (dose: 100.0 mg/kg/injection, schedule: Q01DX010 (ip), vehicle: saline with Tween-80)?
Answer: Its T/C is 90 % of control.

Question: And the T/C (dose: 200.0 mg/kg/injection, schedule: Q01DX010 (ip), vehicle: saline with Tween-80)?
Answer: The T/C was 90 % of control.

Question: And the T/C (dose: 400.0 mg/kg/injection, schedule: Q01DX010 (ip), vehicle: saline with Tween-80)?
Answer: The T/C was 90 % of control.

Question: How did the T/C (dose: 1.8 micrograms/kg/injection, schedule: Q01DX009 (ip), vehicle: saline + alcohol) turn out when COc1cc2cc(c1Cl)N(C)C(=O)CC(O)C1(C)OC1C(C)C1CC(O)(NC(=O)O1)C(OC)C=C/C=C(\C)C2 (stereo not drawn) was run?
Answer: Its T/C is 102 % of control.

Question: What about the T/C (dose: 3.1 micrograms/kg/injection, schedule: Q01DX009 (ip), vehicle: saline + alcohol) of the same compound?
Answer: The T/C was 102 % of control and 115 % of control.

Question: What about the T/C (dose: 6.2 micrograms/kg/injection, schedule: Q01DX009 (ip), vehicle: saline + alcohol) of the same compound?
Answer: The T/C was 102 % of control and 108 % of control.

Question: What about the T/C (dose: 12.5 micrograms/kg/injection, schedule: Q01DX009 (ip), vehicle: saline + alcohol) of the same compound?
Answer: The T/C was 102 % of control and 108 % of control.

Question: What about the T/C (dose: 25.0 micrograms/kg/injection, schedule: Q01DX009 (ip), vehicle: saline + alcohol) of the same compound?
Answer: The T/C was 94 % of control and 113 % of control.

Question: And the T/C (dose: 50.0 micrograms/kg/injection, schedule: Q01DX009 (ip), vehicle: saline + alcohol)?
Answer: The T/C was 94 % of control and 112 % of control.

Question: And the T/C (dose: 100.0 micrograms/kg/injection, schedule: Q01DX009 (ip), vehicle: saline + alcohol)?
Answer: The T/C was 94 % of control and 105 % of control.

Question: And the T/C (dose: 200.0 micrograms/kg/injection, schedule: Q01DX009 (ip), vehicle: saline + alcohol)?
Answer: The T/C was 108 % of control and 112 % of control.

Question: And the T/C (dose: 400.0 micrograms/kg/injection, schedule: Q01DX009 (ip), vehicle: saline + alcohol)?
Answer: The T/C was 102 % of control.

Question: How did the T/C (dose: 10.0 mg/kg/injection, schedule: Q01DX009 (ip), vehicle: saline) turn out when O=c1[nH]cnc2c(C3OC(CO)C(O)C3O)[nH]nc12 (stereo not drawn) was run?
Answer: The T/C was 91 % of control.

Question: What about the T/C (dose: 20.0 mg/kg/injection, schedule: Q01DX009 (ip), vehicle: saline) of the same compound?
Answer: The T/C was 100 % of control.

Question: And the T/C (dose: 40.0 mg/kg/injection, schedule: Q01DX009 (ip), vehicle: saline)?
Answer: Its T/C is 91 % of control.

Question: How did the T/C (dose: 100.0 mg/kg/injection, schedule: Q04DX003 (ip), vehicle: saline with Tween-80) turn out when CCCNC(=O)Nc1cccc(Cl)c1C was run?
Answer: The T/C was 104 % of control.

Question: And the T/C (dose: 200.0 mg/kg/injection, schedule: Q04DX003 (ip), vehicle: saline with Tween-80)?
Answer: The T/C was 100 % of control.

Question: And the T/C (dose: 400.0 mg/kg/injection, schedule: Q04DX003 (ip), vehicle: saline with Tween-80)?
Answer: The T/C was 100 % of control.

Question: How did the T/C (dose: 100.0 mg/kg/injection, schedule: Q04DX003 (ip), vehicle: saline) turn out when CCOCCC(=O)O was run?
Answer: Its T/C is 104 % of control.

Question: And the T/C (dose: 200.0 mg/kg/injection, schedule: Q04DX003 (ip), vehicle: saline)?
Answer: The T/C was 109 % of control.

Question: And the T/C (dose: 400.0 mg/kg/injection, schedule: Q04DX003 (ip), vehicle: saline)?
Answer: Its T/C is 90 % of control.

Question: What does the source list for N#CC(Br)(Br)C(N)=O?
Answer: T/C (dose: 2.5 mg/kg/injection, schedule: Q01DX009 (ip), vehicle: saline): 115 % of control; T/C (dose: 5.0 mg/kg/injection, schedule: Q01DX009 (ip), vehicle: saline): 102 % of control

Question: How did the T/C (dose: 6.25 mg/kg/injection, schedule: Q01DX009 (ip), vehicle: Klucel (hydroxypropylcellulose) (HPC)) turn out when CC1(c2ccc(N(CCCl)CCCl)cc2)NC(=O)NC1=O (stereo not drawn) was run?
Answer: Its T/C is 121 % of control.

Question: What about the T/C [1] of the same compound?
Answer: Its T/C is 122 % of control.

Question: And the T/C [2]?
Answer: Its T/C is 191 % of control.

Question: What about the T/C (dose: 100.0 mg/kg/injection, schedule: Q01DX009 (ip), vehicle: Klucel (hydroxypropylcellulose) (HPC)) of the same compound?
Answer: Its T/C is 260 % of control.
